# Article PMC5218480 (PLoS ONE, 2017)
# System: MV-4-11 cells
# Assay: Gene expression microarray analysis (Affymetrix PrimeView) and GSEA
# Format: cell-based, human
# Design: RFU PODN (11730768_x_at) / Fold change /veh PODN (11730768_x_at) / RFU LINC00158 (11744669_a_at) / Fold change /veh LINC00158 (11744669_a_at) / RFU DUSP10 (11751237_a_at) / Fold change /veh DUSP10 (11751237_a_at) / RFU ID3 (11757404_x_at) / Fold change /veh ID3 (11757404_x_at) / RFU PLEKHG5 (11737974_s_at) / Fold change /veh PLEKHG5 (11737974_s_at) / RFU LRRC4B (11730491_at) / Fold change /veh LRRC4B (11730491_at) / RFU GIMAP4 (11747438_a_at) / Fold change /veh GIMAP4 (11747438_a_at) / RFU KRT8 (11758183_x_at) / Fold change /veh KRT8 (11758183_x_at) / RFU CNN1 (11734310_a_at) / Fold change /veh CNN1 (11734310_a_at) / RFU VPS37D (11726825_at) / Fold change /veh VPS37D (11726825_at) / RFU C10orf10 (11716522_x_at) / Fold change /veh C10orf10 (11716522_x_at) / RFU KIR2DL2 /// KIR2DL4 /// KIR2DL5A /// KIR2DL5B /// KIR2DS1 /// KIR2DS2 /// KIR2DS3 /// KIR2DS4 /// KIR3DL3 /// KIR3DL3 /// KIR3DS1 (11738374_at) / Fold change /veh KIR2DL2 /// KIR2DL4 /// KIR2DL5A /// KIR2DL5B /// KIR2DS1 /// KIR2DS2 /// KIR2DS3 /// KIR2DS4 /// KIR3DL3 /// KIR3DL3 /// KIR3DS1 (11738374_at) / RFU C1QL1 (11718748_at) / Fold change /veh C1QL1 (11718748_at) / RFU TMPRSS4 (11747572_a_at) / Fold change /veh TMPRSS4 (11747572_a_at) / RFU HAMP (11756126_x_at) / Fold change /veh HAMP (11756126_x_at) / RFU RNFT2 (11725882_a_at) / Fold change /veh RNFT2 (11725882_a_at) / RFU NR4A2 (11747474_a_at) / Fold change /veh NR4A2 (11747474_a_at) / RFU ABCC12 (11746883_a_at) / Fold change /veh ABCC12 (11746883_a_at) / RFU TMEM136 (11760407_x_at) / Fold change /veh TMEM136 (11760407_x_at) / RFU CLDN22 /// WWC2 (11732394_at) / Fold change /veh CLDN22 /// WWC2 (11732394_at) / RFU HLA-DPB1 (11760878_x_at) / Fold change /veh HLA-DPB1 (11760878_x_at) / RFU SPINT1 (11716480_a_at) / Fold change /veh SPINT1 (11716480_a_at) / RFU GAP43 (11754022_s_at) / Fold change /veh GAP43 (11754022_s_at) / RFU A4GNT (11735810_at) / Fold change /veh A4GNT (11735810_at) / RFU PRB3 (11715151_x_at) / Fold change /veh PRB3 (11715151_x_at) / RFU TUBB4B (11761932_at) / Fold change /veh TUBB4B (11761932_at) / RFU CAPN14 (11732068_a_at) / Fold change /veh CAPN14 (11732068_a_at) / RFU TMCC2 (11721928_a_at) / Fold change /veh TMCC2 (11721928_a_at) / RFU IRGQ (11745062_a_at) / Fold change /veh IRGQ (11745062_a_at) / RFU FAM174B (11720279_a_at) / Fold change /veh FAM174B (11720279_a_at) / RFU TMPRSS4 (11748680_a_at) / Fold change /veh TMPRSS4 (11748680_a_at) / RFU FAM212B (11763350_a_at) / Fold change /veh FAM212B (11763350_a_at) / RFU PLEKHG5 (11743358_a_at) / Fold change /veh PLEKHG5 (11743358_a_at) / RFU ZSCAN30 (11745921_a_at) / Fold change /veh ZSCAN30 (11745921_a_at) / RFU CMKLR1 (11741424_a_at) / Fold change /veh CMKLR1 (11741424_a_at) / RFU LOC101060620 /// MAPK8IP1 (11723275_at) / Fold change /veh LOC101060620 /// MAPK8IP1 (11723275_at) / RFU SPTSSB (11747773_x_at) / Fold change /veh SPTSSB (11747773_x_at) / RFU PRSS12 (11739890_at) / Fold change /veh PRSS12 (11739890_at) / RFU BIN1 (11741810_x_at) / Fold change /veh BIN1 (11741810_x_at) / RFU WNT11 (11732464_a_at) / Fold change /veh WNT11 (11732464_a_at) / RFU C10orf10 (11716521_a_at) / Fold change /veh C10orf10 (11716521_a_at) / RFU C5orf56 (11738089_at) / Fold change /veh C5orf56 (11738089_at) / RFU CYB561 (11721691_x_at) / Fold change /veh CYB561 (11721691_x_at) / RFU ANKRD19P (11752326_a_at) / Fold change /veh ANKRD19P (11752326_a_at) / RFU OR2T12 /// OR2T33 /// OR2T8 (11738714_s_at) / Fold change /veh OR2T12 /// OR2T33 /// OR2T8 (11738714_s_at) / RFU VCAN (11748164_a_at) / Fold change /veh VCAN (11748164_a_at) / RFU JSRP1 (11732532_at) / Fold change /veh JSRP1 (11732532_at) / RFU KRTAP10-11 (11738290_x_at) / Fold change /veh KRTAP10-11 (11738290_x_at) / RFU MYO3A (11730013_a_at) / Fold change /veh MYO3A (11730013_a_at) / RFU EBF3 (11725865_a_at) / Fold change /veh EBF3 (11725865_a_at) / RFU CAMK2N1 (11719241_x_at) / Fold change /veh CAMK2N1 (11719241_x_at) / RFU C5orf56 (11738088_a_at) / Fold change /veh C5orf56 (11738088_a_at) / RFU OLFML3 (11715873_a_at) / Fold change /veh OLFML3 (11715873_a_at) / RFU LOC100653217 /// NTM (11731650_a_at) / Fold change /veh LOC100653217 /// NTM (11731650_a_at) / RFU MAPK11 (11762145_a_at) / Fold change /veh MAPK11 (11762145_a_at) / RFU FIZ1 (11724087_x_at) / Fold change /veh FIZ1 (11724087_x_at) / RFU OASL (11726364_x_at) / Fold change /veh OASL (11726364_x_at) / RFU SOX15 (11748057_x_at) / Fold change /veh SOX15 (11748057_x_at) / RFU CD79A (11719716_a_at) / Fold change /veh CD79A (11719716_a_at) / RFU HIST1H1D (11736915_at) / Fold change /veh HIST1H1D (11736915_at) / RFU CASKIN2 (11723855_a_at) / Fold change /veh CASKIN2 (11723855_a_at) / RFU LOC730098 (11760151_x_at) / Fold change /veh LOC730098 (11760151_x_at) / RFU OR4N2 (11742367_at) / Fold change /veh OR4N2 (11742367_at) / RFU PRRT2 (11749266_a_at) / Fold change /veh PRRT2 (11749266_a_at) / RFU SNX32 (11753110_a_at) / Fold change /veh SNX32 (11753110_a_at) / RFU CDHR5 (11726645_a_at) / Fold change /veh CDHR5 (11726645_a_at) / RFU RCAN1 (11760418_a_at) / Fold change /veh RCAN1 (11760418_a_at) / RFU FAM167A (11723789_a_at) / Fold change /veh FAM167A (11723789_a_at) / RFU FAM26E (11764081_at) / Fold change /veh FAM26E (11764081_at) / RFU ISYNA1 (11749810_s_at) / Fold change /veh ISYNA1 (11749810_s_at) / RFU ACY1 (11761880_at) / Fold change /veh ACY1 (11761880_at) / RFU 11764098_at / Fold change /veh 11764098_at / RFU SAMD14 (11745864_x_at) / Fold change /veh SAMD14 (11745864_x_at) / RFU NPB (11741838_a_at) / Fold change /veh NPB (11741838_a_at) / RFU TMPRSS6 (11731388_a_at) / Fold change /veh TMPRSS6 (11731388_a_at) / RFU KRTAP10-2 (11738614_at) / Fold change /veh KRTAP10-2 (11738614_at) / RFU ARHGAP8 /// PRR5-ARHGAP8 (11727945_x_at) / Fold change /veh ARHGAP8 /// PRR5-ARHGAP8 (11727945_x_at) / RFU KRTAP5-7 /// NADSYN1 (11734609_at) / Fold change /veh KRTAP5-7 /// NADSYN1 (11734609_at) / RFU RASL12 (11751679_a_at) / Fold change /veh RASL12 (11751679_a_at) / RFU CDKN2B (11736163_a_at) / Fold change /veh CDKN2B (11736163_a_at) / RFU PRF1 (11729649_at) / Fold change /veh PRF1 (11729649_at) / RFU, ZNF638 /// ZNF638-IT1 / Fold change vs veh, ZNF638 /// ZNF638-IT1 / RFU, PANK3 / Fold change vs veh, PANK3 / RFU, SH3YL1 / Fold change vs veh, SH3YL1 / RFU, ZEB2 / Fold change vs veh, ZEB2 / RFU, NRIP1 / Fold change vs veh, NRIP1 / RFU, PTTG1IP / Fold change vs veh, PTTG1IP / RFU, CAPN2 / Fold change vs veh, CAPN2 / RFU, MED14 / Fold change vs veh, MED14 / RFU, SNORA58 / Fold change vs veh, SNORA58 / RFU, C1orf63 / Fold change vs veh, C1orf63 / RFU, LRRFIP1 / Fold change vs veh, LRRFIP1 / RFU, NDUFAF7 / Fold change vs veh, NDUFAF7 / RFU, SLC12A2 / Fold change vs veh, SLC12A2 / RFU, IBTK / Fold change vs veh, IBTK / RFU, ESF1 / Fold change vs veh, ESF1 / Fold change vs veh, TMEM50B / RFU, TAOK1 / Fold change vs veh, TAOK1 / RFU, ACBD3 / Fold change vs veh, ACBD3 / RFU, TMA16 / Fold change vs veh, TMA16 / RFU, RWDD3 / Fold change vs veh, RWDD3 / RFU, BCAT1 / Fold change vs veh, BCAT1 / RFU, EDEM3 / Fold change vs veh, EDEM3 / RFU, TMEM33 / Fold change vs veh, TMEM33 / RFU, WDR75 / Fold change vs veh, WDR75 / RFU, AHCTF1 / Fold change vs veh, AHCTF1 / RFU, TFRC / Fold change vs veh, TFRC / RFU, ZDHHC17 / Fold change vs veh, ZDHHC17 / RFU, NOM1 / Fold change vs veh, NOM1 / RFU, ARL8B / Fold change vs veh, ARL8B / RFU, ZBTB11 / Fold change vs veh, ZBTB11 / RFU, TAMM41 / Fold change vs veh, TAMM41 / RFU, KIAA1704 /// LOC100996395 / Fold change vs veh, KIAA1704 /// LOC100996395 / RFU, ING1 / Fold change vs veh, ING1 / RFU, TRMT61B / Fold change vs veh, TRMT61B / RFU, FUBP3 / Fold change vs veh, FUBP3 / RFU, TP53 / Fold change vs veh, TP53 / RFU, TNKS2 / Fold change vs veh, TNKS2 / RFU, ZFP14 / Fold change vs veh, ZFP14 / RFU, ACTR2 / Fold change vs veh, ACTR2 / RFU, PPP3R1 / Fold change vs veh, PPP3R1 / RFU, PIK3R1 / Fold change vs veh, PIK3R1 / RFU, HNRNPA1 / Fold change vs veh, HNRNPA1 / RFU, RNF170 / Fold change vs veh, RNF170 / RFU, ZNF28 / Fold change vs veh, ZNF28 / RFU, RNGTT / Fold change vs veh, RNGTT / RFU, OGT / Fold change vs veh, OGT / RFU, BRD1 / Fold change vs veh, BRD1 / RFU, MARS / Fold change vs veh, MARS / RFU, ZNF655 / Fold change vs veh, ZNF655 / RFU, FAHD1 / Fold change vs veh, FAHD1 / RFU, BDP1 / Fold change vs veh, BDP1 / RFU, LRRCC1 / Fold change vs veh, LRRCC1 / RFU, ARID1A / Fold change vs veh, ARID1A / RFU, ZNF146 / Fold change vs veh, ZNF146 / RFU, ZNF330 / Fold change vs veh, ZNF330 / RFU, GPN3 / Fold change vs veh, GPN3 / RFU, C9orf123 / Fold change vs veh, C9orf123 / RFU, N4BP2L2 / Fold change vs veh, N4BP2L2 / RFU, ARFIP1 / Fold change vs veh, ARFIP1 / RFU, FAM179B / Fold change vs veh, FAM179B / RFU, BCL10 / Fold change vs veh, BCL10 / RFU, UHRF1BP1L / Fold change vs veh, UHRF1BP1L / RFU, BET1 / Fold change vs veh, BET1 / RFU, CNOT2 / Fold change vs veh, CNOT2 / RFU, ZNF268 / Fold change vs veh, ZNF268 / Fold change vs veh, ZNF507 / RFU, DGCR2 / Fold change vs veh, DGCR2 / RFU, WDSUB1 / Fold change vs veh, WDSUB1 / Fold change vs veh, HSP90B1 /// MIR3652 / RFU, ADSS / Fold change vs veh, ADSS / RFU, GK / Fold change vs veh, GK / RFU, ZNF148 / Fold change vs veh, ZNF148 / RFU, TAF9 / Fold change vs veh, TAF9 / RFU, SLC1A5 / Fold change vs veh, SLC1A5 / RFU, SLMO2 / Fold change vs veh, SLMO2 / RFU, ABCC4 / Fold change vs veh, ABCC4 / RFU, LOC101060439 /// RAP1B / Fold change vs veh, LOC101060439 /// RAP1B / RFU, RFX7 / Fold change vs veh, RFX7 / RFU, GTPBP10 / Fold change vs veh, GTPBP10 / RFU, CNEP1R1 / Fold change vs veh, CNEP1R1 / RFU, BIVM-ERCC5 /// ERCC5 / Fold change vs veh, BIVM-ERCC5 /// ERCC5 / RFU, ILF3 / Fold change vs veh, ILF3 / RFU 11762660_at / Fold change /veh 11762660_at / RFU VCAN (11757783_s_at) / Fold change /veh VCAN (11757783_s_at) / RFU DDX43 (11728927_at) / Fold change /veh DDX43 (11728927_at) / RFU KRT8 (11758188_x_at) / Fold change /veh KRT8 (11758188_x_at) / RFU NKD1 (11759106_at) / Fold change /veh NKD1 (11759106_at) / RFU SRD5A1 (11742802_a_at) / Fold change /veh SRD5A1 (11742802_a_at) / RFU TPSAB1 /// TPSB2 (11721975_s_at) / Fold change /veh TPSAB1 /// TPSB2 (11721975_s_at) / RFU GSTM3 (11746129_a_at) / Fold change /veh GSTM3 (11746129_a_at) / RFU IL23R (11737362_x_at) / Fold change /veh IL23R (11737362_x_at) / RFU TMEM51 (11727254_a_at) / Fold change /veh TMEM51 (11727254_a_at) / RFU PIWIL2 (11732686_x_at) / Fold change /veh PIWIL2 (11732686_x_at) / RFU ORM1 (11744905_x_at) / Fold change /veh ORM1 (11744905_x_at) / RFU CCDC152 (11743942_at) / Fold change /veh CCDC152 (11743942_at) / RFU ECM1 (11717891_a_at) / Fold change /veh ECM1 (11717891_a_at) / RFU IL23R (11748794_a_at) / Fold change /veh IL23R (11748794_a_at) / RFU TNFAIP8L3 (11732012_x_at) / Fold change /veh TNFAIP8L3 (11732012_x_at) / RFU MBOAT4 (11741988_at) / Fold change /veh MBOAT4 (11741988_at) / RFU 11764193_at / Fold change /veh 11764193_at / RFU TMEM53 (11763286_at) / Fold change /veh TMEM53 (11763286_at) / RFU MAGEB2 (11727129_at) / Fold change /veh MAGEB2 (11727129_at) / RFU TMEM200A (11744735_a_at) / Fold change /veh TMEM200A (11744735_a_at) / RFU CCDC152 (11751479_a_at) / Fold change /veh CCDC152 (11751479_a_at) / RFU FAM211A (11726209_a_at) / Fold change /veh FAM211A (11726209_a_at) / RFU RGS16 (11746705_a_at) / Fold change /veh RGS16 (11746705_a_at) / RFU VCAN (11755009_s_at) / Fold change /veh VCAN (11755009_s_at) / RFU RHOB (11743442_s_at) / Fold change /veh RHOB (11743442_s_at) / RFU RGS16 (11720943_a_at) / Fold change /veh RGS16 (11720943_a_at) / RFU RGS16 (11720944_at) / Fold change /veh RGS16 (11720944_at) / RFU, VPS4B / Fold change vs veh, VPS4B / RFU, CREB1 / Fold change vs veh, CREB1 / RFU, DNAJC13 / Fold change vs veh, DNAJC13 / RFU, GNAQ / Fold change vs veh, GNAQ / RFU, CDK5R1 / Fold change vs veh, CDK5R1 / RFU, ZRANB3 / Fold change vs veh, ZRANB3 / RFU, CUL4A / Fold change vs veh, CUL4A / RFU, CCNY / Fold change vs veh, CCNY / RFU, UFL1 / Fold change vs veh, UFL1 / RFU, COG3 / Fold change vs veh, COG3 / RFU, DIAPH2 / Fold change vs veh, DIAPH2 / RFU, SKA2 / Fold change vs veh, SKA2 / RFU, AFF3 / Fold change vs veh, AFF3 / RFU, LMF1 / Fold change vs veh, LMF1 / RFU, IPO11 / Fold change vs veh, IPO11 / RFU, DFFB / Fold change vs veh, DFFB / RFU, FOXP1 / Fold change vs veh, FOXP1 / RFU, CARD8 / Fold change vs veh, CARD8 / RFU, STRN3 / Fold change vs veh, STRN3 / RFU, ADK / Fold change vs veh, ADK / RFU, RASSF2 / Fold change vs veh, RASSF2 / RFU, WIPF1 / Fold change vs veh, WIPF1 / RFU, LARP1B / Fold change vs veh, LARP1B / RFU, RASA1 / Fold change vs veh, RASA1 / RFU, RB1 / Fold change vs veh, RB1 / RFU, PPFIA1 / Fold change vs veh, PPFIA1 / RFU, MAT2A / Fold change vs veh, MAT2A / RFU, CCT5 / Fold change vs veh, CCT5 / RFU, WDR92 / Fold change vs veh, WDR92 / RFU, CUX1 / Fold change vs veh, CUX1 / RFU, TTC7A / Fold change vs veh, TTC7A / RFU, TMEM135 / Fold change vs veh, TMEM135 / RFU, DEPTOR / Fold change vs veh, DEPTOR / RFU, CPM / Fold change vs veh, CPM / RFU, DNAJB6 / Fold change vs veh, DNAJB6 / RFU, CACNA2D3 / Fold change vs veh, CACNA2D3 / RFU, DTX4 / Fold change vs veh, DTX4 / RFU, TFCP2 / Fold change vs veh, TFCP2 / RFU, GMCL1 /// GMCL1P1 / Fold change vs veh, GMCL1 /// GMCL1P1 / RFU, AEBP2 / Fold change vs veh, AEBP2 / RFU, SNHG1 /// SNORD22 /// SNORD25 /// SNORD26 /// SNORD27 /// SNORD28 /// SNORD29 /// SNORD31 / Fold change vs veh, SNHG1 /// SNORD22 /// SNORD25 /// SNORD26 /// SNORD27 /// SNORD28 /// SNORD29 /// SNORD31 / Fold change (Aza/veh), C12orf56 (ProbeSet 11735607_a_at) / Fold change (ACY-1035/veh), C12orf56 (ProbeSet 11735607_a_at) / Fold change (Aza/veh), FGFR1OP (ProbeSet 11751329_s_at) / Fold change (ACY-1035/veh), FGFR1OP (ProbeSet 11751329_s_at) / Fold change (Aza/veh), VPS36 (ProbeSet 11739960_a_at) / Fold change (ACY-1035/veh), VPS36 (ProbeSet 11739960_a_at) / RFU SYPL1 (11715823_x_at) / Fold change /veh SYPL1 (11715823_x_at) / RFU IGFBP7 (11715501_s_at) / Fold change /veh IGFBP7 (11715501_s_at) / RFU REEP3 (11722064_at) / Fold change /veh REEP3 (11722064_at) / RFU IGLL1 (11728026_x_at) / Fold change /veh IGLL1 (11728026_x_at): dose or concentration left out as unconfirmed
# Settings: ProbeSet 11754607_s_at; LIST B
structure (smiles),measurement,value
Nc1ncn([C@@H]2O[C@H](CO)[C@@H](O)[C@H]2O)c(=O)n1 [azacitidine],"Fold change vs veh, HSP90B1 /// MIR3652",0.90
